According to ChEMBL document CHEMBL3507680, “University of Dundee, Gates Library screen for HepG2 cell viability”:

Assay: Human HepG2 cell viability assay in 384 well format
Format: toxicity, cell-based
Set-up: dose 125 nL, time 70.5 hour; concentration not given beside the values
Conditions: HepG2 cells, read-out: Inhibition

SMILES | cytotoxicity at 70.5 h [%]
O=C(c1cscn1)N1C[C@@H]2[C@@H](C1)OCC(=O)N2CC1CCCC1 | -6.35
Cc1ccncc1C(=O)N1C[C@H]2CN(CC3CCC3)C[C@@]2(C(=O)O)C1 | -8.6
Cc1nc(-c2ccccc2C)n(CC(=O)NC(C)C)n1 | 12.9
CC(C)S(=O)(=O)N1CCN(C(=O)c2cnn(C)c2Cl)CC1 | -12.2
Cc1cnn(CC2CN(Cc3cccc(C(N)=O)c3)CCO2)c1 (configuration not stated) | -9.19
Cc1nc(C2CCN(C(=O)c3ccc(Cl)s3)CC2)cc(=O)[nH]1 | -6.29
CCN(CC)CC[C@H]1CN(C(=O)C2CCC2)CC[C@H]1CC(=O)O | 5.37
Cc1ccc(C(=O)N2CCN(c3ncnc4nc(N)ccc34)CC2)cc1 | 20.2
C[C@H](NC(=O)N1CCN(c2ccc(Cl)cc2)CC1)C(=O)N1CCSCC1 | -14.7
CC(C)N(Cc1ccc(C#N)cc1)C(=O)Nc1ccccn1 | -7.3
c1ccc(CN2C[C@@H]3OCCN(CC4CCCO4)[C@@H]3C2)nc1 (some centres not stated) | -9.93
CSCC(C)(O)CNC(=O)c1ccc(F)cc1Cl (configuration not stated) | 0.551
COc1cc(NCCNC(=O)c2ccc3[nH]ccc3c2)cc(OC)c1 | -13.8
Cn1cc2ncn(CCNc3cccnc3)c(=O)c2n1 | -3.81
Cc1ncoc1C(=O)N1CCn2c(COCC3CC3)cnc2C1C (configuration not stated) | 10.1
CCCn1cc(CNCC(c2ccc(C)s2)N2CCOCC2)cn1 (configuration not stated) | 8.59
COCC(=O)N1CCC(O)(CN2CCN(c3ccccc3)CC2)C1 (configuration not stated) | -1.6
O=C(NCc1ccccc1F)N1CCC(C2OCCO2)CC1 | -7.09
CC(=O)N1CCN([C@@H]2CC[C@@H](N(C)C(=O)C3CCCCC3)[C@H]2O)CC1 | -5.4
COc1cccc(-c2cc(NCC(=O)O)nc3[nH]ccc23)n1 | 15.1
CN(C)C(=O)c1cc(-c2ccncc2)[nH]n1 | -4.19
Cc1nn(C)c2nc(N3CCCCC3c3cccnc3)sc12 (configuration not stated) | -4.09
CCCc1nc(C(=O)NCc2cccnc2-n2cncn2)cs1 | 7.67

SMILES | cytotoxicity at 70.5 h [%]
NC(=O)CN1CCCN(C(=O)Cc2cccc(C(F)(F)F)c2)CC1 | 4.42
Cc1ccc(NC2CCN(C(=O)c3ccnc(N(C)C)c3)CC2)nn1 | -22.6
Cc1c(C)c2c(c(C)c1O)CC[C@](C)(C(=O)O)O2 [(R)-TROLOX] | -0.808
CN(CCCNC(=O)c1cccc(OCC(N)=O)c1)CC(F)(F)F | 0.403
NC(=O)CC1CCCCN1C(=O)c1cccc(C(F)(F)F)c1 (configuration not stated) | -0.919
COCC(=O)N1Cc2nccn2CC(Cn2ncccc2=O)C1 (configuration not stated) | -10
c1ccc(-c2nnc([C@H]3CCN(C4CCOCC4)C3)o2)cc1 | -0.562
O=C(O)c1cn(-c2ccccn2)c(=O)c2ccccc12 | -11.1
O=C(c1c[nH]c(=O)[nH]c1=O)N1CCCC(c2nccn2CC2CCC2)C1 (configuration not stated) | -24.3
O=C(NCc1cc[nH]n1)NCC(c1ccccc1)N1CCOCC1 (configuration not stated) | 8.77
COCCN1CCC(CN(C)c2ncnc3c2c(C)nn3C)C1 (configuration not stated) | 6.13
CC1=N[C@@]2(CC[C@@H]3CN(Cc4cccc(Cl)c4)C[C@@H]32)C(=O)N1CC1CC1 | -14.9
O=C(c1cnc2n1CCCC2)N1CCCC1 | -2.75
Cc1ccccc1OC1CCN(C(=O)CNC(=O)N(C)C)CC1 | -15.2
Cc1noc(C)c1CC(=O)NCC(C(C)C)N1CCOCC1 (configuration not stated) | -10.6
O=C(c1cc[nH]c(=O)c1)N1CCn2c(nnc2-c2ccccc2)C1 | -4.86
COCCc1noc(CN2CCCC2c2noc(C3CC3)n2)n1 (configuration not stated) | -1.05
Cc1ccc(CN2CCOC3(CCN(C(=O)N4CCCC4)CC3)C2)cc1 | -2.45
Cc1cc(CN2CCN(C(=O)NC(C)Cn3cccn3)CC2)no1 (configuration not stated) | -9.58
CCSCCn1cc(-c2nccs2)nn1 | -9.08
COc1cc(CNCC(O)c2ccc(F)cc2F)cc2c1OCO2 (configuration not stated) | 4.59
CO[C@H]1CCN(C(=O)c2ccc3oc(C)cc3c2)C[C@@]12CCCO2 | -5.42
CSCC[C@H](NC(=O)CCn1ccc2c(Cl)cccc21)C(=O)O | -2.74

SMILES | cytotoxicity at 70.5 h [%]
COCCO[C@H]1CCN(Cc2cccs2)[C@H]1Cc1cccnc1 | -8.35
Cc1ncccc1Oc1ncnc(N2CCC(O)(CO)CC2)c1C | -6.21
Cc1ccc(Cl)cc1-n1nnnc1C1(N2CCCC2)CCCC1 | -11.5
c1ccc(-c2nnc3n2CCN(Cc2ccc4c(c2)OCCO4)C3)cc1 | 26.9
O=C1NCCO[C@H]2CN(C(=O)c3cccs3)CC[C@@H]12 | 20.1
Cn1ncc2c1C(COCC1CC1)CN(Cc1ccoc1)C2 (configuration not stated) | -6.88
O=C(C1=CCCC1)N1CCC2(CC1)CC(Oc1cccnc1)CO2 (configuration not stated) | -0.424
Cc1noc(C)c1-c1ccnc(C2CCN(S(=O)(=O)N(C)C)CC2)c1 | -2.76
O=C(CCc1nc2cccnc2[nH]1)Nc1ccc2c(c1)NC(=O)CO2 | 8.55
CC(CN1CCCCCC1)NCc1cc(-c2ccco2)on1 (configuration not stated) | -12.2
COc1ccc(NC(=O)COc2nn(C)c3nc(C)cc(C)c23)cn1 | -18.4
c1cc(-c2cncc(C3CCNCC3)n2)n[nH]1 | -6.89
CNc1nc(C)c(C(=O)N2CCCCC2CCc2ccc(O)cc2)s1 (configuration not stated) | -8.49
CN(C)CCN1C(=O)CCC12CCCN(C(=O)CC1CC1)CC2 (configuration not stated) | 20.2
Cc1cc2n(n1)CC(CNCCNC(=O)c1ccc(F)cc1)CN2 (configuration not stated) | -4.35
Cc1ccc(CNC2CCc3nc(C(C)C)nn3C2)o1 (configuration not stated) | -4.86
Cc1cc(Nc2ccc3c(c2)CC(=O)N3)nc(C2CC2)n1 | -9.05
CC(Cn1cccn1)NC(=O)NCCc1cccs1 (configuration not stated) | -6.38
Cc1nn(-c2ccc(C(=O)O)cc2)c2c1C(C(C)C)SCC(=O)N2 (configuration not stated) | -2.14
COc1ccc(CN2C[C@@H]3CN(S(=O)(=O)C4CC4)C[C@@H]3C2=O)cc1 | -9.53
CCn1nc2c(cc1=O)CN(CC(=O)Nc1cc(C)no1)CC2 | -0.888
CC(=O)c1nn(-c2cccc(Cl)c2)c(C)c1C(C)=O | -12.9
CN(C)CCOCC1CN(CC2CCOCC2)Cc2nnn(C)c21 (configuration not stated) | -6.51

SMILES | cytotoxicity at 70.5 h [%]
c1ccc(NC[C@@H]2CCC[C@@H]3CN(Cc4cc[nH]n4)C[C@@H]32)nc1 | -12.4
CN(Cc1cnn(C)c1)C(=O)NCC1CCS(=O)(=O)C1 (configuration not stated) | -4.43
COc1ccccc1C(C)CC(=O)N1CC[C@H](O)C1 (some centres not stated) | -1.27
CN1CCC(N(Cc2ccco2)S(=O)(=O)c2ccc(Cl)cc2)CC1 | -3.29
COc1ccc(OCCN2CCCN(Cc3noc(C)n3)CC2)cc1 | 30.5
Cc1cc(C)cc(Nc2nc(C)cc(=O)n2CC(=O)NC(C)C)c1 | -5.12
O=C(c1cscn1)N1CC[C@]2(C[C@@H](OCCN3CCCC3)CO2)C1 | -6.54
NC(=O)C1(CCCc2ccccn2)CCCN(Cc2ncc[nH]2)C1 (configuration not stated) | 1.81
CCS(=O)(=O)N1CC[C@H](OC)[C@H]2CN(Cc3ccncc3)C[C@H]21 | -3.99
CN(C(=O)c1ccc(C#N)cc1)c1nnc(C2CCOC2)s1 (configuration not stated) | -6.28
CS(=O)(=O)N1CCOCC2(CN(Cc3ccc(F)cc3)CCO2)C1 (configuration not stated) | -3.17
O=C(Cn1cc(Cl)cn1)Nc1ccc2c(c1)OCO2 | -2
CCNc1cc2c(nn1)CCN(C(=O)c1cc3c(s1)CCOC3)C2 | -9.07
N#Cc1c(N)nc2c(c1-c1c[nH]nc1C1CCCCC1)COCC2 | 0.079
CN1CCCC(CCC(=O)NCCCn2ncc3ccccc32)C1 (configuration not stated) | 25.3
Cn1cnnc1C1CCN(C(=O)c2cc(-c3ccccc3)on2)CC1 | 25.4
CCN1CCCC(O)(CNCc2ccc3c(c2)OCO3)C1 (configuration not stated) | -10.3
Cc1nccc(-c2cccc(NCC(=O)N3CCCC(C)C3)c2)n1 (configuration not stated) | -9.5
CC(C)COC(C)C(=O)NCc1ccc(Cn2ccnc2)cc1 (configuration not stated) | -8.31
CN1CCN(Cc2n[nH]c(=O)n2CC2CCCCC2)CC1 | -6.17
COc1ccc(S(=O)(=O)NCc2cccnc2N(C)C)cc1 | -5
Cc1nc(N)ncc1C(=O)N1CCCC(CCc2ccc(F)cc2)C1 (configuration not stated) | -18.8
CC(C)C(=O)Nc1cc(C(C)(C)C)nn1-c1ccccn1 | -3.18

SMILES | cytotoxicity at 70.5 h [%]
CC(=O)N1CCN([C@@H]2CN(C(=O)c3ccccc3)C[C@H]2O)CC1 | -5.08
CNc1cc(CCNC(=O)C2CCCC2)nc(-c2ccccn2)n1 | -8.09
Cc1cnc2c(c1NCc1cccnc1)c(=O)n(C)c(=O)n2C | -0.599
CN(CC(=O)Nc1cccnc1)CC1CCCN1c1cccnn1 (configuration not stated) | -7.79
c1ccc(Cc2noc(-c3ccc(NCC4CCCCO4)nc3)n2)cc1 (configuration not stated) | 26.1
O=C1CC(NS(=O)(=O)c2cccc(F)c2)CN1 (configuration not stated) | 5.76
CC(C)CNC(=O)CN(CC(=O)NCC(C)C)S(C)(=O)=O | -8.05
COc1ccc2c(c1)CC(C1CCOCC1)N(C(=O)c1cnccn1)C2 (configuration not stated) | 0.645
CN(C)C(=O)c1cccnc1-c1ccc2c(c1)OCO2 | -11.3
COc1cccc(CN2C[C@@H]3COC[C@]3(COCc3ccncc3)C2)c1 | 5.79
CS(=O)(=O)N[C@H]1COC[C@@H]2CN(Cc3ccco3)C[C@@H]21 | -5.39
N#Cc1cccc(N2CCC3(CCC(=O)N(CC4CCCO4)C3)CC2)n1 (configuration not stated) | 0.613
COC(=O)CC1CCCCN1CC(=O)NCCc1ccc(F)cc1 (configuration not stated) | 1.06
O=C(COCC(F)(F)F)NS(=O)(=O)c1ccc2c(c1)OCCCO2 | -6.81
CNC(=O)[C@@H](c1ccccc1F)N1CCC[C@H]1C(=O)NC1CC1 | -4.55
Cc1ccc(CNC(=O)NC2CCC(O)CC2)c(N2CCCC2)c1 (configuration not stated) | -10.5
Cc1cc(CN(C)C(=O)C2CC(=O)N(Cc3cccnc3)C2)on1 (configuration not stated) | -9.4
CCc1noc(C(C)SCCS(C)(=O)=O)n1 (configuration not stated) | -7.13
CC(C)(C)n1nnnc1CN(Cc1ccccc1)Cc1ccccc1Cl | -5.12
Cc1cnn(CC2CN(CCc3ccncc3)CCO2)c1 (configuration not stated) | 0.973
